From patent publication US9301923B2, “Lipids, lipid compositions, and methods of using them” (NOVARTIS AG, priority 2009, dated 2016)
Several values for one entry are separate records, joined by “and”; a condition that tells them apart may be missing. Equal entries are not always repeated.

Assays:
[1] = system: PLK-1 mRNA in Hep3B tumors; experiment: Hep3B tumor study, PLK-1 mRNA KD in tumor tissue; format: in vivo, human; conditions: Hep3B tumor, mouse, i.v., LNP composition as in the source
From the text: (§1) Formulated siRNAs are made up of double stranded siRNA sequences specific to a target mRNA sequence, and are in the form of lipid nucleotid particles (LNPs) containing cationic lipids, stealth lipids and neutral lipids, as provided in the Examples below. The siRNA construct for use in targeting the liver is specific to Factor VII. The siRNA construct for use in targeting tumors is specific to PLK1-424, which is published by Judge et al., See, J Clin Invest. 2009 March; 119(3):661-73; doi: 10.1172/JCI37515). • 1. FVII siRNA duplex sequence
Hep3B tumors are established in female nude mice by sc injection of 7×10^6 cells in 100 ul PBS into the left flank. Mice are randomized into treatment groups 10-14 days after seeding as tumors reached an average size of 100 mm^3. siRNA formulated LNP formulations are administered at various dose levels intravenously via the lateral tail vein calculated on a mg siRNAs/kg basis according to individual animal weights (10 ml/kg injection volume). Mice are euthanized by CO2 inhalation at various time points and the tumors are harvested for mRNA quantitation. Lipids with a wide range of pKa (5.3-6.6) are used in the LNP formulations. Tumors are measured in 2 dimensions (width×length) to assess tumor growth using digital calipers. Tumor volume is calculated using the equation [a×b×b/2], where a equals the largest diameter and b equals the smallest diameter.
(§2) About 30-50 mg tumor tissue is homogenized in tissue lysis buffer in a Qiagen homogenizer followed by centrifugation to clarify lysates. Total RNA is isolated using RNeasy isolation kit (catalog number 74106) according to the manufacture's protocol. PLK-1 mRNA is analyzed by quantitative PCR and normalized to human GAPDH. Applied Biosystems human PLK-1 gene expression assay Hs00983229_m1 and human GAPDH endogenous control cat number 4326317E are used for mRNA detection.
(§3) The pKa in all tables refers to the pKa of the cationic lipid. Where multiple doses are indicated (e.g., 3×5), the first number indicates the number of doses given and the second number indicates the amount per dose in mg siRNA (biologically active agent) per kg mouse. In general the multiple doses are administered at 24 hour intervals, and tissues for mRNA quantitation are harvested 24 hours after the last dose.

Factor VII = Factor VII activity assay, in vivo liver delivery of FVII siRNA LNP; parameters: species or system mouse; conditions: ~48 h
Method in brief: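 Female CD-1 mice (~25 g) given a single i.v. tail-vein dose of FVII siRNA in LNPs (cationic, stealth, neutral lipids), dosed as mg siRNA/kg. Plasma collected ~48 h post-injection; FVII activity read against a standard curve from pooled vehicle-control plasma.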

[2] = pKa of the lipid by TNS fluorescence; format: physicochemical; conditions: pKa
Method in brief: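 Lipid dissolved in ethanol (2 mM stock) and measured with TNS across eight buffers of differing pH, in water at standard temperature and pressure. Normalized fluorescence intensity plotted against pH and points joined by a smooth line to derive pKa, precise to about 0.2 units.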

[3] = Particle size and PDI by dynamic light scattering (Malvern Zetasizer); format: physicochemical; parameters: Final size: unit not given here; conditions: for Final size: LNP formulation, Table 10
Method in brief: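 Nanoparticles diluted in PBS to a count rate of about 200-400 kcts and measured by dynamic light scattering; size given as intensity-weighted average diameter, with polydispersity index from the same measurement.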

[4] = system: PLK-1 mRNA in HepG2 tumors; experiment: HepG2 tumor study, PLK-1 mRNA KD in tumor tissue; format: in vivo, human; conditions: Mus musculus, HepG2, iv, 24 h, HepG2 tumor in nude mice, 3 × 3 mg/kg siRNA iv, tumors harvested 24 hrs after the last dose; read-out: PLK1 % inhibition
From the text: as §1
HepG2 tumors are established in female nude mice by sc injection of 5×10^6 cells in 100 ul PBS into the left flank. Mice are randomized into treatment groups 10-14 days after seeding as tumors reached an average size of 150 mm^3. siRNA formulated LNP formulations are administered at 3×3 mg/kg dose levels intravenously via the lateral tail vein calculated on a mg siRNAs/kg basis according to individual animal weights (10 ml/kg injection volume). Mice are euthanized by CO2 inhalation at various time points and the tumors are harvested 24 hrs after the last dose for mRNA quantitation. Lipids with a wide range of pKa (5.3-6.6) are used in the LNP formulations. Tumors are measured in 2 dimensions (width×length) to assess tumor growth using digital calipers. Tumor volume is calculated using the equation [a×b×b/2], where a=largest diameter and b=smallest diameter.
as §2, §3

[5] = dose 3 mg/kg siRNA i.v., lipid/DSPC/CHOL/AVANTI 880150P 50/28/18/4, N/P 3.43
[6] = dose 3 mg/kg siRNA i.v., lipid/no neutral lipid/CHOL/AVANTI 880150P 50/0/46/4, N/P 3.43
[7] = lipid/DSPC/CHOL/AVANTI 880150P 50/28/18/4, N/P 3.43
[8] = lipid/no neutral lipid/CHOL/AVANTI 880150P 50/0/46/4, N/P 3.43
[9] = lipid/no neutral lipid/CHOL/S006 60/0/37/3, N/P 3
[10] = lipid/no neutral lipid/CHOL/S010 60/0/37/3, N/P 3
[11] = LNP formulation with PLK1 siRNA, helper, neutral and stealth lipid, molar ratio and N/P as in the table
[12] = dose 1 mg/kg siRNA i.v., lipid/no neutral lipid/CHOL/GM-020 NOF 60/0/36/4, N/P 3
[13] = lipid/no neutral lipid/CHOL/GM-020 NOF 60/0/36/4, N/P 3

## CCCCC/C=C\C/C=C\CCCCCCCCOCC(CN1CCC(OC)C1)OCCOCCO[C@H]1CC[C@@]2(C)C(=CC[C@H]3[C@@H]4CC[C@H]([C@H](C)CCCC(C)C)[C@@]4(C)CC[C@@H]32)C1 (stereo partly shown) [E0024]
[1]; 1 × 10 mg siRNA/kg
  PLK1 inhibition %: 15%
[1]; 4 × 5 mg siRNA/kg
  PLK1 inhibition %: 23%
Factor VII; dose 1 mg/kg siRNA i.v., lipid/DSPC/CHOL/AVANTI 880150P 50/28/18/4, N/P 3.43
  FVII inhib %: 85.3%
Factor VII; dose 1 mg/kg siRNA i.v., lipid/no neutral lipid/CHOL/AVANTI 880150P 50/0/46/4, N/P 3.43
  FVII inhib %: 95.7%
Factor VII; dose 1 mg/kg siRNA i.v., lipid/no neutral lipid/CHOL/S006 60/0/37/3, N/P 3
  FVII inhib %: 83.8%
Factor VII; dose 1 mg/kg siRNA i.v., lipid/no neutral lipid/CHOL/S010 60/0/37/3, N/P 3
  FVII inhib %: 72.2%
Factor VII; [5]
  FVII inhib %: 99.9%
Factor VII; [6]
  FVII inhib %: 99.5%
[2]
  pKa: 6.62
[3]; LNP formulation with PLK1 siRNA, helper, neutral and stealth lipid, molar ratio and N/P as in the table, stealth lipid S004, molar ratio 60/38/0/2, N/P 3
  Final size (nm): 120.6 nm
[3]; LNP formulation with PLK1 siRNA, helper, neutral and stealth lipid, molar ratio and N/P as in the table, stealth lipid S011, molar ratio 40/48/10/2, N/P 3
  Final size (nm): 88.46 nm
[3]; [7]
  Final size (nm): 100 nm
  PDI: 0.148
[3]; [8]
  Final size (nm): 149 nm and 125 nm
  PDI: 0.092 and 0.08
[3]; [9]
  Final size (nm): 98.53 nm
  PDI: 0.12
[3]; [10]
  Final size (nm): 96.09 nm
  PDI: 0.137

## CCCCC/C=C\C/C=C\CCCCCCCCOCC(CN1CCC(CCC)C1)OCCOCCO[C@H]1CC[C@@]2(C)C(=CCC3C2CC[C@@]2(C)C3CC[C@@H]2[C@H](C)CCCC(C)C)C1 (stereo partly shown) [E0025]
[1]; 1 × 1 mg siRNA/kg
  PLK1 inhibition %: 27%
Factor VII; [5]
  FVII inhib %: 63%
Factor VII; [6]
  FVII inhib %: 94.2%
[2]
  pKa: 5.45
[3]; LNP formulation with PLK1 siRNA, helper, neutral and stealth lipid, molar ratio and N/P as in the table, stealth lipid S004, molar ratio 45/43/10/2, N/P 4
  Final size (nm): 118.8 nm
[3]; LNP formulation with PLK1 siRNA, helper, neutral and stealth lipid, molar ratio and N/P as in the table, stealth lipid S011, molar ratio 40/48/10/2, N/P 4
  Final size (nm): 85.63 nm
[3]; LNP formulation with PLK1 siRNA, helper, neutral and stealth lipid, molar ratio and N/P as in the table, stealth lipid S011, molar ratio 60/38/2, N/P 4
  Final size (nm): 95.73 nm
[3]; [7]
  Final size (nm): 97 nm
  PDI: 0.22
[3]; [8]
  Final size (nm): 73 nm
  PDI: 0.12

## CCCCC/C=C\C/C=C\CCCCCCCCOCC(CN1CCC(O)C1)OCCOCCO[C@H]1CC[C@@]2(C)C(=CC[C@H]3[C@@H]4CC[C@H]([C@H](C)CCCC(C)C)[C@@]4(C)CC[C@@H]32)C1 (stereo partly shown) [E0045]
[1]; 1 × 1 mg siRNA/kg
  PLK1 inhibition %: 36%
Factor VII; [5]
  FVII inhib %: 10.4%
Factor VII; [6]
  FVII inhib %: 90.7%
[2]
  pKa: 4.73
[3]; [11]
  Final size (nm): 103.2 nm
[3]; [7]
  Final size (nm): 100 nm
  PDI: 0.18
[3]; [8]
  Final size (nm): 103 nm
  PDI: 0.25

## CCCCC/C=C\C/C=C\CCCCCCCCOCC(Cn1ccnc1)OCCOCCO[C@H]1CC[C@@]2(C)C(=CCC3C2CC[C@@]2(C)C3CC[C@@H]2[C@H](C)CCCC(C)C)C1 (stereo partly shown) [E0051]
[1]; 1 × 10 mg siRNA/kg
  PLK1 inhibition %: 17%
Factor VII; [5]
  FVII inhib %: 17%
Factor VII; [6]
  FVII inhib %: 77.5%
[2]
  pKa: 5.73
[3]; [11]
  Final size (nm): 85.77 nm
[3]; [7]
  Final size (nm): 157.7 nm
  PDI: 0.131
[3]; [8]
  Final size (nm): 142.9 nm
  PDI: 0.057

## CCCCCCCC/C=C\CCCCCCCCOCC(CN1CCCCC1)OCCO[C@H]1CC[C@@]2(C)C(=CC[C@H]3[C@@H]4CC[C@H]([C@H](C)CCCC(C)C)[C@@]4(C)CC[C@@H]32)C1 (stereo partly shown) [E0061]
[1]; 1 × 1 mg siRNA/kg
  PLK1 inhibition %: 23%
Factor VII; [12]
  FVII inhib %: 52.6%
[2]
  pKa: 6.28
[3]; [11]
  Final size (nm): 90.09 nm
[3]; [13]
  Final size (nm): 139.4 nm
  PDI: 0.073

## CCCCC/C=C\C/C=C\CCCCCCCCOCC(CN1CCCCC1)OCCCOCCCO[C@H]1CC[C@@]2(C)C(=CC[C@H]3[C@@H]4CC[C@H]([C@H](C)CCCC(C)C)[C@@]4(C)CC[C@@H]32)C1 (stereo partly shown) [E0077]
[1]; 1 × 5 mg siRNA/kg
  PLK1 inhibition %: 77%
Factor VII; [12]
  FVII inhib %: 26.8%
[2]
  pKa: 5.79
[3]; [11]
  Final size (nm): 120.8 nm
[3]; [13]
  Final size (nm): 109.8 nm
  PDI: 0.127

## CCCCC/C=C\C/C=C\CCCCCCCCOCC(CN1CCC(OC)C1)OCCCOCCCO[C@H]1CC[C@@]2(C)C(=CC[C@H]3[C@@H]4CC[C@H]([C@H](C)CCCC(C)C)[C@@]4(C)CC[C@@H]32)C1 (stereo partly shown) [E0088]
[1]; 1 × 5 mg siRNA/kg
  PLK1 inhibition %: 71%
Factor VII; [12]
  FVII inhib %: 50.8%
[2]
  pKa: 5.79
[3]; [11]
  Final size (nm): 146.2 nm
[3]; [13]
  Final size (nm): 110.7 nm
  PDI: 0.080

## CCCCC/C=C\C/C=C\CCCCCCCCCCOCC(CN1CCCC1C)OCCCOCCCO[C@H]1CC[C@@]2(C)C(=CC[C@H]3[C@@H]4CC[C@H]([C@H](C)CCCC(C)C)[C@@]4(C)CC[C@@H]32)C1 (stereo partly shown) [E0095]
[1]; 1 × 0.1 mg siRNA/kg
  PLK1 inhibition %: 23%
Factor VII; [12]
  FVII inhib %: 13%
[2]
  pKa: 5.84
[3]; [11]
  Final size (nm): 96.09 nm
[3]; [13]
  Final size (nm): 125.1 nm
  PDI: 0.091

## CCCCC/C=C\C/C=C\CCCCCCCCOC[C@@H](CN1CCC[C@H]1C)OCCCOC(=O)CCC(=O)O[C@H]1CC[C@@]2(C)C(=CCC3C2CC[C@@]2(C)C3CC[C@@H]2[C@H](C)CCCC(C)C)C1 (stereo partly shown) [E0162]
[4]
  inhibition at 3 mg/kg: 0%
[2]
  pKa: 6.07
[3]
  Final size: 114.4

## CCCCCCCC/C=C\CCCCCCCCOCC(CN1CCOCC1)OCCOCCNC(=O)O[C@H]1CC[C@@]2(C)C(=CC[C@H]3[C@@H]4CC[C@H]([C@H](C)CCCC(C)C)[C@@]4(C)CC[C@@H]32)C1 (stereo partly shown) [E0175]
[4]
  inhibition at 3 mg/kg: 49%
[2]
  pKa: 5.67
[3]; molar ratio 50/43/5/2, N/P 3.8
  Final size: 93.51
[3]; molar ratio 60/38/2, N/P 4
  Final size: 78.74
